Values of other authors as cited in patent US11446320B1, “Pharmaceutical combination having potent antiviral activity against single-stranded RNA viruses” (priority 2021, dated 2022).

Key:
SARS-CoV-2 = conditions: mammalian cells, in vitro

Compound	inhibition of dengue virus (dengue virus)	replication of SARS-CoV-2 (SARS-CoV-2)	inhibition of yellow fever virus (yellow fever virus)	effectiveness against bunyaviruses (bunyaviruses)	effectiveness against influenza viruses (influenza viruses)	effectiveness against arenaviruses (arenaviruses)	effectiveness against filoviruses (filoviruses)
ivermectin	inhibit	slow replication	inhibit				
NC(=O)c1nc(F)c[nH]c1=O [Favipiravir]				effective	effective	effective	effective
NC(=O)c1nc(F)cn([C@@H]2O[C@H](COP(=O)(O)OP(=O)(O)OP(=O)(O)O)[C@@H](O)[C@H]2O)c1=O [favipiravir-RTP]				effective	effective	effective	effective
